Experimental data as given in patent publication US7553821B2, “Methods for selectively modulating survivin apoptosis pathways” (Yale University, priority 2000, dated 2009).

How the values were obtained:
HeLa cells = assay: Mitotic spindle immunofluorescence (tubulin) in transfected HeLa cells; assay type: cell-based; conditions: tubulin labeling
Procedure: HeLa cells transfected with wild type survivin (WT) or survivin(T34A) (T34A), were fixed in microtubule-stabilizing buffer (Li et al., 1998), and labeled with mAb 20C6 to […] -tubulin followed by FITC-conjugated goat anti-mouse IgG. Images were analyzed by confocal microscopy as described in FIG. 2C.
(§1) Transfection experiments. For transient transfection, HeLa cells in C-6 tissue culture plates (Costar, Cambridge, Mass.) at ˜60-70% confluency, were incubated in 1 ml of serum-free OptiMEM medium (Life Technologies, Gaithersburg, Md.) for 20 min, and transfected with 2.5 μg of the various plasmid cDNAs plus 9 μl Lipofectamine (Life Technologies). After a 5 h incubation at 37° C., the mixture was aspirated and substituted with complete growth medium for 48-72 h. To generate stable YUSAC-2 transfectants, a survivin(T34A) cDNA was inserted into the HindIII-SpeI sites of the pTet-splice vector (Dr. D. Schatz, Yale University School of Medicine), downstream of the regulatory sequences of the Tet-resistance operon (TetO). YUSAC-2 cells were transfected with 0.8 μg pTet-T34A, 0.8 μg of the transactivation/selection plasmid ptTA-Neo and 5 μl Lipofectamine in 1 ml of OptiMem. […] Gated GFP-expressing cells were analyzed for DNA content by flow cytometry on a FACSort (Becton Dickinson, San Jose, Calif.) using a Cell Quest software. […]

caspase-8 = target: T1, caspase-8 (Homo sapiens, UniProt Q14790); assay: Co-immunoprecipitation of survivin and caspase-8 from HeLa cells; assay type: binding; conditions: transfected HeLa cells
T1 construct: endogenous in cells; host or cells: HeLa
Procedure: The experimental conditions are the same as in A, except that HA-survivin and HA-survivin(T34A) immunoprecipitates were separately immunoblotted with antibodies to caspase-8 or HA. S, supernatant of HA-survivin immunoprecipitate. Arrow, position of ˜55 kDa proform caspase-8.
as §1

T1 sequence (Q14790 whole entry): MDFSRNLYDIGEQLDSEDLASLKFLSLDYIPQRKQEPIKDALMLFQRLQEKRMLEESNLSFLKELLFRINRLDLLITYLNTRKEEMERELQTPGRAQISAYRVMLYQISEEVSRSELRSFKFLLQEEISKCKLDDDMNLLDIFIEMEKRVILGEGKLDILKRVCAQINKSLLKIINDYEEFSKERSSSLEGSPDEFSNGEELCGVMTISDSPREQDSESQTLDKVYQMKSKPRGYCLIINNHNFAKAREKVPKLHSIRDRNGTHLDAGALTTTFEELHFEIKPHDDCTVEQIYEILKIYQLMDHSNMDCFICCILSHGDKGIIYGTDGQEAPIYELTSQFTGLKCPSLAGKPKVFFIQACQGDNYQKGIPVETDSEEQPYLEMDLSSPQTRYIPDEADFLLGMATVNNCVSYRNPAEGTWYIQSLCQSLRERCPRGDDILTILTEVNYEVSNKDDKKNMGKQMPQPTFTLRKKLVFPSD

Substance: survivin(T34A): dominant-negative, non-phosphorylatable survivin mutant with Thr34→Ala substitution, expressed from transfected cDNA (also HA- or GFP-tagged)
- mitotic spindle morphology (HeLa cells): profound dysregulation of mitotic transitions
- caspase-8 in immunoprecipitates by Western blotting (caspase-8): did not contain another upstream initiator caspase, caspase-8
